Here are results for two compounds from paper PMC4059234, “Edc3 Function in Yeast and Mammals Is Modulated by Interaction with NAD-Related Compounds” (G3: Genes|Genomes|Genetics, 2014).

In one experiment the target is T1, yEdc3 (Saccharomyces cerevisiae, UniProt P39998).
T1 construct: gene EDC3; full-length recombinant yeast Edc3
T1 sequence (P39998 1-551): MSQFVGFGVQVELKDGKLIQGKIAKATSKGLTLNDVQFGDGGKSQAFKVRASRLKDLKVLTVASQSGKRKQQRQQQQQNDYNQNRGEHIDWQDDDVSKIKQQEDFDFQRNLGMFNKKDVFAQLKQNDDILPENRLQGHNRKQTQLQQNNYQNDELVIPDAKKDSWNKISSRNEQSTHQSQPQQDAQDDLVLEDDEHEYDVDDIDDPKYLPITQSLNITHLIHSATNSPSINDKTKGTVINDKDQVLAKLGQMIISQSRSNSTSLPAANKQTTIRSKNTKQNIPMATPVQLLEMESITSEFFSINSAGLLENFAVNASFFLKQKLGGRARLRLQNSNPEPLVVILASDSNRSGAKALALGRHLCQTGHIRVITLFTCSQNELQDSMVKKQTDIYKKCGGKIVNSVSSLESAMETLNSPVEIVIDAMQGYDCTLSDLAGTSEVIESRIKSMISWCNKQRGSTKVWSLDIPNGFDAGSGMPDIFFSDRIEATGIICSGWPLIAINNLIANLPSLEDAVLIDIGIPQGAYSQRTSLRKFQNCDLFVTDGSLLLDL
The experiment can be described thus: thin-layer chromatography of […]-NAD incubated with recombinant protein. The format is biochemical.

The next experiment addresses T2, hEdc3 (Homo sapiens, UniProt Q96F86).
T2 construct: gene EDC3; full-length hEdc3
T2 sequence (Q96F86 1-508): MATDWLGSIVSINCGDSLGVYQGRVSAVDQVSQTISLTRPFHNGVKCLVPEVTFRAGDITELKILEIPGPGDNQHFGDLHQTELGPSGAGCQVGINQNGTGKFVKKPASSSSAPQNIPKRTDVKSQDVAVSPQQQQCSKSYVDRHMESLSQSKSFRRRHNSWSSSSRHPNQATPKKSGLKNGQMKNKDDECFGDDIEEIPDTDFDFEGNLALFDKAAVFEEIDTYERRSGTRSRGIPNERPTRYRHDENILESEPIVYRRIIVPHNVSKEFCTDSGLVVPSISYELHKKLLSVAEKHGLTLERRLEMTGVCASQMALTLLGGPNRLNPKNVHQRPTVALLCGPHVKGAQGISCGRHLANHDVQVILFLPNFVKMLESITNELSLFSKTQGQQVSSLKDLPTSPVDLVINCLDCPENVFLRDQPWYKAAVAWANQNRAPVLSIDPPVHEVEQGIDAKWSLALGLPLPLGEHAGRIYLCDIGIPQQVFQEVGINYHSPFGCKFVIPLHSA
Briefly: isothermal titration calorimetry ([…]°, pH […]). The format is binding. (ITC needs no label: the signal is the heat of the interaction.)

SMILES strings stand for the structures.

Turning to `NC(=O)c1ccc[n+]([C@@H]2O[C@H](COP(=O)([O-])OP(=O)(O)OC[C@H]3O[C@@H](n4cnc5c(N)ncnc54)[C@H](O)[C@@H]3O)[C@@H](O)[C@H]2O)c1` [NAD], the “thin-layer chromatography of 32P-NAD incubated with recombinant protein” value at yEdc3 is “Incubation of yeast WT Edc3 with radiolabeled NAD gave rise to two slower migrating species”. By Kd is commonly meant the constant that tells how readily two partners part at equilibrium. On to `NC(=O)C1=CN([C@@H]2O[C@H](COP(=O)(O)OP(=O)(O)OC[C@H]3O[C@@H](n4cnc5c(N)ncnc54)[C@H](O)[C@@H]3O)[C@@H](O)[C@H]2O)C=CC1` [NADH], for which the dissociation constant (Kd) at hEdc3 came to 163 ± 27.4 µM.
